Data set [1] deals with human CB2 receptor (hCB2) (Homo sapiens, UniProt P34972). Nature of the data set: cAMP assay (LANCE TR-FRET) in CHO-K1 cells expressing hCB2. It is filed as cell-based. As to conditions: for Emax: CHO-K1, intrinsic activity: percent maximal activation compared to full activation by CP55,940 (1 μM = 100%), read-out: hCB2 % Max Range; for EC50: CHO-K1 cells stably expressing hCB2, intracellular cAMP, NKH-477 prestimulated, average of at least three replicates. In general terms: Cyclic AMP is a second messenger, typically raised through Gs and lowered through Gi signalling.

In data set [2] the target is human CB1 receptor (hCB1) (Homo sapiens, UniProt P21554). The data set is described as follows: cAMP assay (LANCE TR-FRET) in CHO-K1 cells expressing hCB1. It is filed as cell-based. The following applies: activity on hCB1 represents inverse agonism; for Emax: CHO-K1, percent of range defined by CP55,940 (1 μM = 100%), read-out: hCB1 % Max Range; for EC50: CHO-K1 cells stably expressing hCB1, intracellular cAMP, NKH-477 prestimulated.

The test system of another data set is Male ICR mice. The data set is described as follows: Acetic acid-induced writhing assay in mice. The following applies: 10 mg/kg subcutaneous, 30 min before 0.6% acetic acid i.p.; writhes counted over 15 min. Type of data set: in vivo. From the text: 12: 525-562; Ramabadran and Bansinath (1986) Pharm. Res. 3: 263-270]. Intraperitoneal administration of dilute acetic acid solution causes a writhing behavior in mice. A writhe is defined as a contraction of the abdominal muscles accompanied by an extension of the forelimbs and elongation of the body. The number of writhes observed in the presence and absence of test compounds is counted to determine the analgesic activity of the compounds.
(§1) Male ICR mice, 20-40 grams in weight, served as experimental subjects. To determine the activity and potency of test compounds, mice were weighed and then injected with different doses of the compound solution or vehicle subcutaneously in the back of the neck and then returned to their home cages. Thirty minutes later, body temperatures were obtained using a digital rectal probe and then mice were immediately injected with 10 ml/kg of a 0.6% (v/v) acetic acid solution into the right lower quadrant of the abdomen. Mice were then placed in individual observation chambers (usually a 4000 ml beaker) with a fine layer of bedding at the bottom and the recording of the number of writhes begun immediately. The number of writhes was counted over a 15-min period starting from the time of the acetic acid injection. Raw data were analyzed using a one-way ANOVA followed by Dunnett's post-tests. For dose-response analysis, raw data were converted to % maximum possible effect (% MPE) using the formula:
% MPE=((Wc−Wv)/(0−Wv))*100
where Wc is the number of writhes in compound-treated mice and Wv is the mean number of writhes in vehicle-treated mice. The dose which elicited 50% attenuation of hypersensitivity (ED50) was determined using linear regression analysis. (Tallarida & Murray, 1987).
For orientation: An intraperitoneal irritant provokes the stretching counted in writhing tests.

Data set [3] in a line: Body temperature (rectal probe) in writhing assay mice. Type of data set: in vivo. As to conditions: 10 mg/kg subcutaneous; thirty minutes after dosing. Here is the method: as §1, with “formula: […]” for “formula:”

Each structure is given as a SMILES string. Bounds are passed on as bounds.

By EC50 is commonly meant the concentration giving half of the maximal effect. A higher EC50 goes with a need for much substance.

Sequence of human CB1 receptor (hCB1) (P21554 whole entry): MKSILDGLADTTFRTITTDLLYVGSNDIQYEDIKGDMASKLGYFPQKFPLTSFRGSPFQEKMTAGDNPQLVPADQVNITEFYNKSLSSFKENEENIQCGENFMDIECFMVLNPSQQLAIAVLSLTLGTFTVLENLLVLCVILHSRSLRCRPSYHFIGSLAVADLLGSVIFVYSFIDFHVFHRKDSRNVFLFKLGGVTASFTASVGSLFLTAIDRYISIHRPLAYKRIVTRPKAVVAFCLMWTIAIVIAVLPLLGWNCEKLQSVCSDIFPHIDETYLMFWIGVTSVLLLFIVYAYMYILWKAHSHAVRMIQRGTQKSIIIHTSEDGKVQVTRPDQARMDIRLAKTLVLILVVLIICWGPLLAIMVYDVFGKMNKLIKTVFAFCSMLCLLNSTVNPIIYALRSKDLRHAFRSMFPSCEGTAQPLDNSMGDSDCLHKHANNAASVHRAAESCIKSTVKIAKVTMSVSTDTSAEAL
Sequence of human CB2 receptor (hCB2) (P34972 whole entry): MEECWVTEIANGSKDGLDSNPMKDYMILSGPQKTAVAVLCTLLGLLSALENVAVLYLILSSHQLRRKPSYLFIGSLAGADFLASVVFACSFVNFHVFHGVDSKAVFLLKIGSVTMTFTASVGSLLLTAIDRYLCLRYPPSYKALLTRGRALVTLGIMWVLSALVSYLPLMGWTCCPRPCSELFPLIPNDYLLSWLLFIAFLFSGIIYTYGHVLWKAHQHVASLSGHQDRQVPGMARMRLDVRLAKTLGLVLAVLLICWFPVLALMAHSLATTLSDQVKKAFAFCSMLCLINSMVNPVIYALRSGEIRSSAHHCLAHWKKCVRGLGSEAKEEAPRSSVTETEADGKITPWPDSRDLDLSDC

Take `O=S(=O)(c1ccc2c(c1)C1C3CCC(C3)C1C(c1ccccc1)N2)N1CCCCC1` (stereo not drawn) [(3b), Bridged 6-phenyl-2-(piperidin-1-ylsulfonyl)-5,6,6a,7,8,9,10,10a-octahydrophenanthridine]: in data set [1], the Emax amounted to 101% and a half-maximal effect (EC50) was put at 0.38 nM. Moreover, in data set [2], the Emax is less than 40% and the EC50 is more than 10000 nM. Besides, in the data set with Male ICR mice, the “% MPE” value is reported as 12%. Moreover, the “Δ BODY TEMP. (° C.): observed reduction in body temperature” value (“Δ BODY TEMP. (° C.): observed reduction” for short) in data set [3] was found to be 0.4 °C.
As to `O=S(=O)(c1ccc2c(c1)C1C3CCC(C3)C1C(c1ccccc1)N2)N1CCOCC1` (stereo not drawn) [(34), Bridged 4-(6-phenyl-5,6,6a,7,8,9,10,10a-octahydrophenanthridin-2-ylsulfonyl)morpholine], in data set [1], the Emax amounted to 102% and a half-maximal effect (EC50) was put at 0.56 nM. For the same compound, in data set [2], the Emax was less than 40% and the EC50 is more than 10000 nM. For the same compound, in the data set with Male ICR mice, the “% MPE” value came out at 23%. Also, the “Δ BODY TEMP. (° C.): observed reduction” value in data set [3] turned out to be 0.1 °C.
On to `CC(=O)NS(=O)(=O)c1ccc2c(c1)C1C3CCC(C3)C1C(c1ccccc1)N2` (stereo not drawn) [(46), Bridged N-(6-phenyl-5,6,6a,7,8,9,10,10a-octahydrophenanthridin-2-ylsulfonyl)acetamide], for which, in data set [1], the Emax stood at 96.9% and the response was half-maximal at 36.7 nM (EC50). Besides, in data set [2], the Emax is less than 40% and the EC50 was more than 10000 nM. Moreover, the “% MPE” value with Male ICR mice is given as 41%. The “Δ BODY TEMP. (° C.): observed reduction” value in data set [3] is 0.2 °C.
